Data on two compounds can be found in US8679836B2, “Methods of monitoring angiogenesis and metastasis in three dimensional co-cultures” (The United States of America, as represented by the …, priority 2007, dated 2014).

Like-named read-outs stand apart in the source and are kept apart here.

Test [1] relates to PAE-GFP cells. Put plainly: Tubule formation assay on gelled BME, quantified with AngioApplication. The conditions noted are these: for EC50: Sus scrofa. The class given is cell-based, porcine. On the procedure: This example describes exemplary procedures for measuring the ability of the cell lines disclosed herein for tubule formation potential. 50 μl of low growth factor BME (Basement Membrane Extract, Trevigen, Inc. Gaithersburg, Md.) were laid down in each well and the plate was incubated for 1 hour at 37° C. The extract gels at 37° C. to form a reconstituted basement membrane and stimulates tubule formation by endothelial cells. The major components of the Basement Membrane Extract (BME) include laminin I, collagen IV, entactin, and heparin sulfate proteoglycan. 15,000 PAE-GFP cells were then added on top of the gelled BME and images were acquired with a fluorescent microscope after 3.5-24 hours. Cells were imaged on the BD Pathway™ Bioimager. […] Tubule formation assays were quantified using the Java based software AngioApplication™. AngioApplication™ has been specifically designed for the quantification of tubule formation assays. Several morphological parameters were assessed in images including the total area of the tubules, the total number of tubules, number of nodes, number of branch points, the number of tubes per node, or node.
As shown in FIG. 7A increasing concentrations of suramin causes disruption of tubule formation. AngioApplication™ was used to automatically assess tube length at several concentrations of suramin. Traditionally quantification of tube formation was based in the measurement of complete (long) tubes in the image. AngioApplication™ determined that as the concentration of suramin was increased the number of long tubules was diminished. […] In addition, because AngioApplication™ calculates the length for all tubes in the image (including incomplete tubes) a more refined analysis was performed using the measurement of short (or incomplete) tubules. […] This is in agreement with the fact that Suramin interferes with the mechanism of tube formation.

The subject of test [2] is PAE cells. Briefly: 3D co-culture of fluorescent PAE cells with leiomyosarcoma HTB-88 xenograft biopsy tissue. The class given is cell-based, porcine. The conditions noted are these: 100 μg/ml, six days, FIG. 30. As for the experimental part:
Xenografts were prepared as in Example 7. Tumor xenografts were dissected when they reached about 1 cm in diameter and put into the sterile 15 ml or 50 ml tubes (Corning) with RPMI1640 medium supplemented with 10% FBS, 1% Glucose (Sigma), and 4× Antibiotic-Antimycotic (Invitrogen). The tumor xenografts were placed on wet ice and shipped to the lab within 2-3 hours. The Xenografts were rinsed 3 times in 70% ethanol and then 3 times in PBS. In the hood, the core biopsy was performed by biopsy punch (Miltex, Inc.) and was washed out into a 100 cm cell culture dish (Corning) by using a pipette to blow the top opening of the biopsy applicator. Using a disposable scalpel (Feather Safety Razor, Co. Japan), the core biopsy was dissected in three stages. 1 mm of both ends of the core biopsy was carefully cut off; they were transferred into a new 100 cm cell culture dish labeled P (peripheral section). Next, 1 mm of both ends of the remaining core biopsy were removed and discarded. […]
3D co-cultures were prepared as follows: 50 μl 1% SEAKEM™ LE agarose were added to individual wells of a 96-well plate and allowed to solidify at room temperature for 20 minutes. […] Cultures were incubated at 37° C. for 5-20 days and endothelial vessel network formation was observed by confocal laser scanning fluorescence microscopy. […]

The test system of test [3] is HMEC-1. Briefly: 3D co-culture of HMEC-1 with leiomyosarcoma HTB-88 core biopsy xenograft, panel of angiogenesis inhibitors. The class given is cell-based, human. The settings on record: 100 μg/ml, five-day incubation, versus Thalidomide, Sunitinib, Fumagillin. On the procedure:
Peripheral ringlet xenograft tissue/HMEC-1 co-cultures were incubated with Avastin®, Thalidomide, Sunitinib or Fumagilin.
3D co-cultures were prepared as follows: 50 μl 1% SEAKEM™ LE agarose were added to individual wells of a 96-well plate and allowed to solidify at room temperature for 20 minutes. 30 μl GELTREX® gel matrix (Invitrogen) were combined with PAE, LEC or HMEC-1 cells at a cell density of 560,000 cells/ml and added to each well of the plate (atop the solidified agarose). Plates were maintained on wet ice (4° C.) to prevent solidification of the gel matrix/cell mixture (the second layer). A single tumor cell spheroid colony or single ringlet of xenograft core biopsy was added to the center of the well and the matrix gel was solidified at 37° C. On top of the tumor/endothelial cell gel layer, 80 μl EBM-2+1% FBS were added to a final concentration of EMB-2+0.5% FBS in relation to the total volume of the culture. Cultures were incubated at 37° C. for 5-20 days and endothelial vessel network formation was observed by confocal laser scanning fluorescence microscopy. […]
Identifying the most efficacious therapy for a particular patient is a crucial goal for successful cancer treatment. […] Several FDA approved anti-angiogenic compounds were assessed in this capacity, including Avastin®, Thalidomide, and Sunitinib as well as the non-FDA approved drug Fumagillin.
Background: In xenograft studies the graft and the host belong to different species.

By EC50 is commonly meant the concentration at which the effect is half-maximal. Consider `Cc1ccc(C(=O)Nc2ccc(S(=O)(=O)O)c3cc(S(=O)(=O)O)cc(S(=O)(=O)O)c23)cc1NC(=O)c1cccc(NC(=O)Nc2cccc(C(=O)Nc3cc(C(=O)Nc4ccc(S(=O)(=O)O)c5cc(S(=O)(=O)O)cc(S(=O)(=O)O)c45)ccc3C)c2)c1` [suramin], for which the “effect on tubule formation” value in test [1] (PAE green cells, 0 to 26 μM) is “inhibited tubule formation”. Also, the concentration giving a half-maximal response (EC50) is ~26 µM in test [1] (read-out: EC50, number of long tubules); ~26 µM in test [1] (read-out: EC50, number of short (incomplete) tubules); ~26 µM in test [1] (read-out: EC50 calculated, tubule formation).
“Avastin®: monoclonal antibody directed against an isoform of VEGF, FDA-approved angiogenesis inhibitor”: in test [2], the “effect on PAE proliferation” value is “inhibited” and the “effect on tubule formation” value is given as “inhibited”. In addition, in test [3], the “inhibition of proliferation, compared with the other inhibitors” value was “greatest inhibition” and the “inhibition of tubule formation, compared with the other inhibitors” value was “greatest inhibition”.
